# Experimental data published in US20240002467A1, “COMPOSITIONS AND METHODS OF INHIBITING THE BINDING OF PLASMA IGG AUTOANTIBODIES TO SEROTONIN 2A RECEPTOR” (UNITED STATES GOVERNMENT AS REPRESENTED BY THE DEPARTMENT …, priority 2020, published 2024).
# “And” between values parts separate entries of the source, which are not always exact repeats. Identical values can stand only once. “Also recorded” adds a separate entry of the source. Ends that are not written are not given here.
# Assays:
# [1] = system: male Zucker diabetic fatty rats; assay: Tail cuff blood pressure in male ZDF rats after IP peptide; assay type: in vivo, rat; design: systolic blood pressure within 15 minutes of administration: unit not given here; settings: for mean systolic blood pressure, baseline: 8.5-week-old male ZDF rats before single IP: pegylated 1 mg/kg (n=3), scrambled 2 mg/kg (n=4); for Estimate: difference in mean diastolic blood pressure vs scrambled decoy peptide 2 (time series analysis) / Estimate: difference in mean systolic blood pressure vs scrambled decoy peptide 2 (time series analysis): pegylated 1 mg/kg IP vs scrambled 2 mg/kg IP (reference = 0)
# Description: Animals. Male ZDF and lean (+/?) Zucker rats were obtained from Charles River Laboratories (Kingston, NY) at approximately 6-7 weeks of age. The rats were single housed upon arrival, without enrichment. Rats were acclimatized for two weeks prior to experimental procedures. Rats were provided ad libitum access to food and water and maintained in a 12 h light/dark cycle with lights on at 0630. The procedures occurred during the light phase of the cycle. Blood pressure testing (following acute or chronic administration of the decoy peptides) was conducted in three separate cohorts of animals.
# Cohort 1: Three 25-week-old male ZDF and three, age-matched, male Zucker lean rats (ZLR) treated with IP decoy peptide 2 (ZDF) vs saline (vehicle) (ZLR).
# Cohort 2: Eleven-week old male ZDF (n=5) and Zucker lean rats (n=4) treated with IP decoy peptide 2.
# Cohort 3: Twelve 8.5-week old male Zucker diabetic fatty rats were randomly assigned to one of three treatment groups (n=4/group). The rats underwent baseline blood pressure determinations using tail-cuff plethysmography technique. Next, the animals who expressed baseline hypertension, i.e., blood pressure >135/85, received either a 1 mg/kg intraperitoneal injection of pegylated decoy peptide 2 (n=3); a 2 mg/kg intraperitoneal dose of a scrambled decoy peptide 2 (n=4); or vehicle (i.e., sterile saline) (N=4). Blood pressure was determined at 15 minutes, 45 minutes, 4 hours, 8 hours, 24 hours, 30 and 48 hours following single IP injection. One week later, the same two groups of ZDF rats received either 0.75 mg/kg IP pegylated decoy peptide 2, 2 mg/kg scrambled decoy peptide 2, or sterile saline; and blood pressure was determined at similar timepoints. Two weeks later, two groups of 12-week-old ZDF rats (n=6/group) including those that had previously received acute peglyated decoy peptide 2 or scrambled decoy peptide 2 were treated on an alternative daily schedule with IP, free decoy peptide 2 (2 mg/kg) vs IP scrambled decoy peptide 2 (2 mg/kg) continuously for 13 weeks until sacrifice at 25 weeks of age. Body weight was determined immediately before sacrifice and after perfusion; and hearts were excised and weighed for determination of the heart-to-(perfused) body weight ratio.
# (§1) Blood pressure monitoring. Tail cuff blood pressure measurement was performed using an automated CODA noninvasive blood pressure system (Kent Scientific, Torrington, CT). Rats were placed on an insulated warming platform in a well-heated room to ensure proper body temperature. Cuff monitors were provided in different sizes to accommodate rats of different ages and having different body weights. After the animal was positioned in the clear plastic restraint holder, the appropriate-sized cuff was slid over the rat's tail.
# Statistical Analysis. Comparisons were made using Student's unpaired t-test (Tables 3-6, 9 and FIG. 18) or time series analysis (Tables 7, 8, FIG. 16).
# as §1, with “CT.).” for “CT).”
# Experiment 1: Four 12-week-old male ZDF rats were randomly assigned to receive either a single IP injection of a scrambled sequence (SEQ ID NO: 7) of Peptide ID #2 (SEQ ID NO: 2) at 1 mg/kg concentration or a 1 mg/kg concentration of myristolated Peptide ID #2 (SEQ ID NO: 9). Blood pressure was determined using tail cuff plethysmography (Kent Scientific) at 1, 4, 6, 48 and 72 hours post-injection.
# Experiment 2: Six 12-week-old male ZDF rats were assigned to each of three treatment groups (N=2/group). […]
# [2] = system: Zucker diabetic fatty rats; settings: rat, in vivo
# [3] = once-daily valsartan 160 mg; cited from earlier work
# [4] = system: Zucker diabetic fatty rats; settings: ZDF rats treated 6 months, cited from earlier work
# [5] = system: Zucker diabetic fatty rats; assay: Observation of side effects / tolerability in ZDF rats
# [6] = system: Zucker diabetic fatty rats; assay: Plasma hepatic transaminases (AST, ALT) after chronic IP treatment of ZDF rats; assay type: in vivo, rat; settings: 2 mg/kg IP alternate daily weeks 10-16, blood at week 16, vs saline
# Description: Two groups of Zucker diabetic fatty rats (N=4 each) were treated with alternate daily intraperitoneal dose (IP) of either a composition comprising decoy peptide 2 (SEQ ID NO: 2) (2 mg/kg) or an equal volume of sterile saline (vehicle) for […] (between weeks 10-16). Blood was obtained at week 16 for determination of plasma hepatic transaminases (AST, ALT) and plasma triglycerides.
# [7] = cited from earlier work
# [8] = 8.5-week-old male ZDF rats, single IP: pegylated 1 mg/kg, scrambled 2 mg/kg
# [9] = ZDF rats, before pegylated 0.75 mg/kg IP
# [10] = ZDF rats, pegylated 0.75 mg/kg single IP
# [11] = ZDF rats, listed as Peg decoy peptide 2
# [12] = ZDF rats, pegylated 1 mg/kg single IP
molecule,measurement,setting,value
K(DBCO-DSPE-PEG2K)-SCLLADDN (not fully specified; Lys-DBCO-DSPE-PEG2000 conjugate; MOD_RES (1)..(1) Lys(Azide)) [pegylated decoy peptide 2],"mean systolic blood pressure, baseline",[1],155 mm Hg
same,"mean systolic blood pressure, baseline",[1]; listed as Pegylated decoy peptide 2,155+/−12 mm Hg
same,"mean diastolic blood pressure, baseline","[1]; 8.5-week-old male ZDF rats before single IP: pegylated 1 mg/kg, scrambled 2 mg/kg",105+/−8 mm Hg
same,mean diastolic blood pressure 45 minutes post-injection,[1]; [8],92+/−11 mm Hg
same,mean systolic blood pressure 45 minutes post-injection,[1]; [8],122+/−5 mm Hg
same,"diastolic blood pressure, baseline",[1]; [9],108 mm Hg
same,"systolic blood pressure, baseline",[1]; [9],154 mm Hg
same,diastolic blood pressure 30 hours post injection,[1]; [10],80 mm Hg
same,diastolic blood pressure at 45 minutes post-injection,[1]; [10],80 mm Hg
same,diastolic blood pressure lowering at 45 minutes post-injection,[1]; [10],19%
same,reduction of systolic blood pressure at 45 minutes post-injection,[1]; [10],17%
same,reduction of systolic blood pressure between 24-30 hours after injection,[1]; [10],14-19%
same,systolic blood pressure at 45 minutes post-injection,[1]; [10],128 mm Hg
same,time at which diastolic blood pressure recovered to baseline,[1]; [10],48 h
same,time at which systolic blood pressure recovered to baseline,[1]; [10],48 h
same,Estimate: difference in mean diastolic blood pressure vs scrambled decoy peptide 2 (time series analysis),[1]; ZDF rats,−9.8 mm Hg
same,Estimate: difference in mean systolic blood pressure vs scrambled decoy peptide 2 (time series analysis),[1]; ZDF rats,−8.9 mm Hg
same,Estimate: difference in mean diastolic blood pressure vs scrambled decoy peptide 2 (time series analysis),[1]; [11],−9.7771 mm Hg
same,Estimate: difference in mean systolic blood pressure vs scrambled decoy peptide 2 (time series analysis),[1]; [11],−8.9162 mm Hg
same,change of systolic blood pressure within 15 minutes vs baseline,[1]; [12],−28%
same,diastolic blood pressure lower than baseline at 30 hours post injection,[1]; [12],34%
same,"maximum reduction of diastolic blood pressure, 8 hours after injection",[1]; [12],36%
same,reduction of diastolic blood pressure at 4 hours post-injection,[1]; [12],20%
same,systolic blood pressure within 15 minutes of administration,[1]; [12],111
same,time after which systolic blood pressure had returned to baseline,[1]; [12],48 h
same,"dose dependence of systolic and diastolic blood pressure lowering, in words","[1]; ZDF rats, single IP 0.75 to 1 mg/kg","significant, dose-dependent systolic and diastolic blood pressure lowering effects; also recorded: significant, dose-dependent, long-lasting systolic and diastolic blood pressure-lowering effect"
same,"effect on diastolic blood pressure, in words","[1]; ZDF rats, single IP: pegylated 1 mg/kg, scrambled 2 mg/kg",trend of significant acute decline in diastolic blood pressure
same,sustained reductions in systolic and diastolic blood pressure 30 hours after administration,"[1]; male ZDF rat, pegylated 1 mg/kg",25-26%
same,tolerability after the initial dose,[2],no sedation or hypotension was observed after the initial dose
CCCCC(=O)N(Cc1ccc(-c2ccccc2-c2nnn[nH]2)cc1)[C@H](C(=O)O)C(C)C [valsartan],"systolic blood pressure-lowering effect after 24 hours, in words",[3],no significant systolic blood pressure-lowering effect
CN(C)C(=N)N=C(N)N [metformin],"serum ALT, times higher than upper limit of normal",[4]; both groups,more than 3 times
same,serum ALT,[4]; metformin or vehicle (both groups),~142 IU/L
"CC(C)C[C@H](NC(=O)[C@H](CS)NC(=O)[C@H](CC(=O)O)NC(=O)[C@H](CC(N)=O)NC(=O)[C@H](CO)NC(=O)[C@H](C)NC(=O)[C@@H](N)CC(C)C)C(=O)N[C@@H](CC(=O)O)C(=O)O [scrambled decoy peptide 2, reference compound]",untoward physical or behavioral effect,"[5]; ten ZDF rats (Expt 1 and 2), up to 14-21 days after single IP",None of the ten rats tested (N=4 in Expt 1; N=6 in Expt 2) experienced any untoward physical or behavioral effect
SCLLADDN [decoy peptide 2],side effects of acute blood pressure-lowering,"[5]; 11-week-old male ZDF rats (N=5), 2 mg/kg IP",none of the five male ZDF rats experienced any untoward side effects including hypotension or acute sedation
same,acute side effects after first dose,"[5]; 25-week-old male ZDF rats, 2 mg/kg IP, two of three rats, resolved spontaneously",sedation and borderline hypotension
same,side effects after repeat drug exposure,"[5]; 25-week-old male ZDF rats, up to 18 days after repeat 2 mg/kg IP",no untoward acute or long-term side effects
same,long-term side effects after chronic administration,"[5]; ZDF rats, chronic (10 weeks) administration",No untoward long-term side effects were observed
same,safety and tolerability of alternate daily dosing,"[5]; obese Zucker rats, 2 mg/kg alternate daily","safe, well-tolerated"
same,mean plasma AST,[6],did not differ significantly; also recorded: not associated with significant increase in AST
CC/C=C\C/C=C\C/C=C\C/C=C\C/C=C\CCCC(=O)O [EPA],HR for cardiovascular events,[7]; REDUCE-IT,0.75
same,"reduction in occurrences of cardiovascular death, nonfatal heart attack, nonfatal stroke, coronary stenting or bypass or unstable angina",[7]; REDUCE-IT,25%
same,reduction of plasma triglyceride level,"[7]; humans, chronic treatment, REDUCE-IT after 1 year",18% and 18.3%
